Data as given in the NIST ThermoML archive (doi:10.1016/j.jct.2011.11.023).
Numbers after ± are expanded uncertainties.

Legend:
[1] = 298 K; 101.33 kPa; Crystal 2; X-ray diffraction
[2] = Solid-liquid equilibrium temperature; conditions: 101.3 kPa, DSC
[3] = Molar enthalpy of transition or fusion; conditions: DSC

mass density [1]: 1471 ± 2 kg/m3 | Solid-liquid equilibrium temperature ([2]; Crystal 1): 507 ± 2 K | Solid-liquid equilibrium temperature ([2]; Crystal 2): 453.6 ± 0.3 K | Molar enthalpy of transition or fusion ([3]; Crystal 1): 6.62 ± 0.191 kcal/mol | Molar enthalpy of transition or fusion ([3]; Crystal 2): 0.308 ± 0.0311 kcal/mol
Structure (SMILES): O=C(O)c1cccnc1 [3-carboxylpyridine]
